Data: ChEMBL document CHEMBL5233240, “hERG toxicity assessment: Useful guidelines for drug design” (Eur J Med Chem, 2020)

Target: Voltage-gated inwardly rectifying potassium channel KCNH2 (Homo sapiens, UniProt Q12809)
Test: Inhibition of human ERG
Assay type: toxicity

Sequence of Voltage-gated inwardly rectifying potassium channel KCNH2 (Q12809 whole entry): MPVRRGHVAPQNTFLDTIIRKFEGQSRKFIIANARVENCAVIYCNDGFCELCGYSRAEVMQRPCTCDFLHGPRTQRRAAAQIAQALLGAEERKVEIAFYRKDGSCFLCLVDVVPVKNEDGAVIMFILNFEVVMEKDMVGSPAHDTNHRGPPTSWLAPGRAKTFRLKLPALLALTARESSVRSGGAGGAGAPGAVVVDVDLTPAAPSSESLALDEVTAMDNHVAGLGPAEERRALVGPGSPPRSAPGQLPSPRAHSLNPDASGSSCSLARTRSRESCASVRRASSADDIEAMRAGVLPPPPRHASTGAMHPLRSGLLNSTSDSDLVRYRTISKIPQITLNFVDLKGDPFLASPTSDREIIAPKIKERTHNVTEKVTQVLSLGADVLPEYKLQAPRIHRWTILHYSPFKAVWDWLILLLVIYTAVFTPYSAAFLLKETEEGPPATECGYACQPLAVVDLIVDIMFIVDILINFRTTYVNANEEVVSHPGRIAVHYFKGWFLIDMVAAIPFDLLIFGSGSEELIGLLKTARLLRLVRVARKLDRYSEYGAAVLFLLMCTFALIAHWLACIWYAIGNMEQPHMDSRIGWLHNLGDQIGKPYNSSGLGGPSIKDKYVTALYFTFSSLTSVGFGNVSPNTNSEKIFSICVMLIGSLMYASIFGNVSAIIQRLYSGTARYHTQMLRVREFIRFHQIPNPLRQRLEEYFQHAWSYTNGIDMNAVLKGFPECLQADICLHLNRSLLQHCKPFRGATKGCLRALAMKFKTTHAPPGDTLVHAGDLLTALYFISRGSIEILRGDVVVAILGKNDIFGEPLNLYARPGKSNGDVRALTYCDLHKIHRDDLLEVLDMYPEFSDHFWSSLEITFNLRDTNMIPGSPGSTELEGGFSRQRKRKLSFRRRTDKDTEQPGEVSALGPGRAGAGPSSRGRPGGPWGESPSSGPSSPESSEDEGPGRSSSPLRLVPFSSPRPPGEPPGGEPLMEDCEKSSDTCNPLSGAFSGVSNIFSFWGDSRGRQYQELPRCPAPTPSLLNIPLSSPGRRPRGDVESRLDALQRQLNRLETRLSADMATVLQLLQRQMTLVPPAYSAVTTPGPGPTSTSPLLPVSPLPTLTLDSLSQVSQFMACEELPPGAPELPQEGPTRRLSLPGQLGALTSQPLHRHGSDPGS

Structure (SMILES)	IC50 [µM]
N#Cc1ccc(Cn2cncc2CC[C@H]2CCN(Cc3cccc(Cl)c3)C2=O)cc1	0.44
N#Cc1ccc2cc1Oc1ccc3c(c1)[C@@H](CCC3)N1CC[C@H](C1)NCc1cncn1-2	7
